According to PMC7363839, “A Peptide-Based PD1 Antagonist Enhances T-Cell Priming and Efficacy of a Prophylactic Malaria Vaccine and Promotes Survival in a Lethal Malaria Model” (Frontiers in Immunology, 2020):

Test system: P. yoelii 17 XNL sporozoites
Test: P. yoelii 17 XNL sporozoite challenge of AdPyCS-immunized mice
Type: in vivo, BALB/c mice
Conditions: suboptimal AdPyCS IM; 200 μg IP days 1, 3, 5, 7; challenge day 12 with 100 sporozoites IV; AdPyCS alone 4.8 ± 0.6 days
Experimental: Sporozoite challenge experiments were performed, as described previously ([32]). Briefly, immunized mice were administered 100 live P. yoelii 17 XNL sporozoites IV via the tail vein. Parasitemia was monitored from days 3 to 10 after sporozoite challenge by detecting the presence of parasitized red blood cells in thin blood smears to assess complete protection against malaria. Briefly, a drop of blood was collected from the mouse tail vein for thin blood smears on pre-cleaned glass slides. Thin blood smears were fixed with absolute methanol and then stained with diluted Giemsa stain (1:20, v/v) (Sigma-Aldrich, St. Louis, MO) for 10 min. […]
Figure 2 LD01 increases antigen-specific CD8^+ T cell numbers following AdPyCS vaccination. (A) At day 12 post-AdPyCS immunization, immunogenicity was assessed by measuring the number of splenic PyCS-specific, IFN-γ-secreting CD8^+ T cells using the ELISpot assay after stimulation with the H-2kd restricted CD8 epitope SYVPSAEQI. Data are expressed as the mean ± SD. […] Significant differences between AdPyCS + control peptide and treated mice were determined using a one-way ANOVA multiple comparisons test and are denoted by *p < 0.05 and **p < 0.005. […] Data represent two independent experiments (n = 10/group/experiment) and are expressed as the mean percent protection. […]

In the case of “OVA323−339 (KISQAVHAAHAEINEAG; UniProt P01012 323-339, looked up, fragment) [control peptide, control peptide used in AdPyCS vaccine studies]”, the time of patency is reported as 4.7 ± 0.7 days.
